System: human lung cancer NCI-H358 cell xenograft
Test: In vivo pharmacodynamics on human lung cancer NCI-H358 cell xenograft tumor model
Parameters: species or system BALB/c nude mice
Experimental: • BALB/c nude mice, 6-8 weeks old, female, purchased from Shanghai Xipuer-Bikai Experimental Animal Co., Ltd. 6.3.2 Cell Culture and Cell Suspension Preparation • 1) MiaPaca-2 cells were taken out from the cell bank and resuscitated with DMEM medium (DMEM+10% FBS), the resuscitated cells were placed in a cell culture flask (labeled with cell type, date, name of cultured person, etc.) and cultured in a CO2 incubator (incubator temperature was 37° C., CO2 concentration was 5%) (the method of resuscitating NCI-H358 cells was the same as MiaPaca-2 cells in test embodiment 5, and the culture medium was changed to RPMI-1640 medium). • 2) Passage was conducted every three to five days, and the cells was continued to be cultured in CO2 incubator after passage. The process was repeated until the cell count meets the in vivo pharmacodynamic requirements. • 3) MiaPaca-2 cells were collected and counted by automatic cell counter, according to the counting results, the cells were re-suspended with PBS and Matrigel (ratio was 1:1) to make cell suspension (cell density was 5×10^7/mL), then placed in a ice box for use (NCI-H358 cells were re-suspended with PBS without adding Matrigel, cell density was 1×10^8/mL). 6.3.3 Sample Preparation: • 1) Solvent: solvent (0.5% CMC-Na+1% Tween 80), storage condition: 4° C.
0.5 g of CMC-Na was weighted, dissolved in ddH2O, then 1.0 mL of Tween 80 was added and the mixture was stirred to mix well, and the volume was finally set to 100 mL. • 2) Compound to be tested (10 mg/kg) was prepared:
8.42 mg of AMG510 compound was weighted, 8.260 mL of solvent was added, a uniform solution was obtained by ultrasound, vortexing and stirring.
7.81 mg of embodiment compound 165-1 was weighted, 7.654 mL of solvent was added, a uniform solution was obtained by ultrasound, vortexing and stirring.
• 1) Before inoculation, nude mice were labeled with disposable universal ear tags of rats and mice; • 2) when inoculating, the cell suspension was mixed well, 0.1-1 mL cell suspension was extracted with a 1 mL syringe, bubbles were removed, and then the syringe was put on an ice bag for later use; • 3) the nude mice was held with left hand, the right back of nude mice near the right shoulder (inoculation site) was disinfected with 75% alcohol, and inoculation was started after 30 seconds; • 4) the experimental nude mice were inoculated in turn (each mouse was inoculated with 0.1 mL of cell suspension); 6.3.4 Tumor-Bearing Mouse were Measured, Grouped, and Administered: • 1) According to the tumor growth, the tumor was measured on the 18th day after inoculation, and the tumor size was calculated. tumor volume (mm^3)=length (mm)×width (mm)×width (mm)/2 Tumor volume calculation: • 2) The tumor-bearing mice were grouped according to their body weight and tumor size using a randomized grouping method. • 3) According to the grouping results, the administration of the test drug was started (administration method: oral administration; administration dose: 10 mg/kg; administration volume: 10 mL/kg; administration frequency: once a day; administration period: 21 days; solvents: 0.5% CMC/1% Tween 80). • 4) The tumor was measured and weighed twice a week after the test drug was started to be given. • 5) After the experiment, all animals were euthanized. • 6) Data was processed with software such as Excel. […]

`C=CC(=O)N1C[C@H](C)N(c2nc(=O)n(-c3c(SC)ccnc3C(C)C)c3nc(-c4c(N)ccc(Cl)c4F)c(Cl)cc23)C[C@H]1C` (single isomer, unassigned) [Embodiment 165-1] was tested, and the “TGI (%) Day 15” value (Day 15, 10 mpk oral once a day) was 67.41%, the “tumor volume (mm^3, Mean ± SD) Day 15” value (Day 15, 10 mpk oral once a day) was 267 ± 155 mm^3 and the “ΔT/ΔC(%) Day 15” value (Day 15, 10 mpk oral once a day) was 32.59%. For the same compound, the “tumor volume (mm^3, Mean ± SD) Day 0” value (baseline Day 0, 10 mpk oral once a day) was 203 ± 74 mm^3.
